Patent US20240164373A1, “ANTIMICROBIAL PERFUMING CONSUMER PRODUCTS” (Firmenich SA, priority 2021, published 2024)
≈ marks a conversion by molar mass, not a printed value.

Key:
Type in all cases: cell-based
[1] = tested on: Cutibacterium acnes DSM 1897; experiment: MIC test in 96 well plates (broth dilution, turbidity), anaerobic strain; settings: DSM1897, average of three replicates, WC broth, sample in DMSO, read-out: Minimal inhibitory concentration (ppm) Cutibacterium acnes DSM 1897
[2] = tested on: Corynebacterium tuberculostearicum C1; experiment: MIC test in 96 well plates (broth dilution, turbidity); settings: average of three replicates, BHI-TW80 broth, sample in DMSO, read-out: Minimal inhibitory concentration (ppm) Corynebacterium tuberculostearicum C1
Procedure: Bacterial suspension of the Corynebacterium tuberculostearicum C1 strain was prepared as follows: Stock culture (stored at −80° C.) was subcultured onto tryptic soy agar plates with 0.5% Tween 80 (TSA-TW80), and subsequently incubated at 37 °C for 48 h. The primary cultures were subcultured again onto TSA-TW80 to prepare the secondary cultures. One single colony of the secondary culture was then selected and used to inoculate 50 ml brain heart infusion broth with 0.5% Tween 80 (BHI-TW80). The inoculated broth was incubated at 37° C. and 180 rpm overnight. Aliquots (2 mL) of the overnight culture were inoculated into 50 ml of fresh BHI-TW80 broth media, and incubated at 37° C., 160 rpm. When the OD600 nm reached the target value of 4.0, cells were harvested by centrifugation at 5000 rpm for 10 min, and then resuspended in the fresh BHI-TW80 broth media at the same volume before the centrifugation. Aliquots (1 ml) of each cell suspension were diluted in 200 ml of fresh BHI-TW80 broth media as the bacterial solutions for the MIC test.
Sample solutions of test materials and reference material were prepared in ethanol for MIC test for E. coli and S. aureus strains or in DMSO for C. tuberculostearicum and C. acnes strains. In brief, stock solutions of 1% and 20% were prepared in each solvent, and then seven serial dilutions of each stock solution were prepared in each solvent to obtain a total of 16 solutions of the test material or the reference material. Aliquot (10 μl) of each solution was used for MIC test. The tested final concentrations of each material were 29, 44, 66, 99, 148, 222, 333, 500, 590, 900, 1300, 2000, 3000, 4500, 6700, 10000 ppm.
MIC test were performed in 96 well plates. […] Column 1 contained bacterial solution only (the positive growth control), and column 12 contained growth media only (the negative growth control). […]
Minimal inhibitory concentration (MIC) was determined as the lowest concentration where no growth was observed. Average MIC value of the three replicates was calculated against each strain.

[3] = tested on: Escherichia coli ATCC 25922; experiment: as above; settings: ATCC25922, average of three replicates, MH broth, sample in ethanol, 37° C. overnight, read-out: Minimal inhibitory concentration (ppm) Escherichia coli ATCC 25922
[4] = tested on: Staphylococcus aureus ATCC 6538; experiment: as above; settings: ATCC6538, average of three replicates, MH broth, sample in ethanol, 37° C. overnight, read-out: Minimal inhibitory concentration (ppm) Staphylococcus aureus ATCC 6538
Escherichia coli DSM 787 = experiment: as above; settings: DSM787, average of three replicates, MH broth, sample in ethanol, 37° C. overnight, read-out: Minimal inhibitory concentration (ppm) Escherichia coli DSM 787

Row | Structure (SMILES) | MIC [1] | MIC [2] | MIC [3] | MIC [4] | MIC (Escherichia coli DSM 787)
1 | CCC=C(C)C(O)C(C)CC (stereo not drawn) [3,5-dimethyl-5-octen-4-ol] | 1770 µg/mL (≈ 11300 µM) | 2670 µg/mL (≈ 17100 µM) | 3500 µg/mL (≈ 22400 µM) | 1530 µg/mL (≈ 9810 µM) | 
2 | CC(CCO)CCc1ccccc1 (stereo not drawn) [3-methyl-5-phenyl-1-pentanol] | 259 µg/mL (≈ 1450 µM) | 200 µg/mL (≈ 1120 µM) |  | 185 µg/mL (≈ 1040 µM) | 360 µg/mL (≈ 2020 µM)
3 | CC(O)CC(C)CCc1ccccc1 (stereo not drawn) [4-methyl-6-phenyl-2-hexanol] | 148 µg/mL (≈ 770 µM) | 1300 µg/mL (≈ 6760 µM) | > 10000 µg/mL | 173 µg/mL (≈ 900 µM) | 
